Biological target: T1, hGIP-R (Homo sapiens, UniProt P48546)
T1 construct: expressed in transfected cells; host or cells: HEK-293 clonal cell lines
T1 sequence (P48546 22-466): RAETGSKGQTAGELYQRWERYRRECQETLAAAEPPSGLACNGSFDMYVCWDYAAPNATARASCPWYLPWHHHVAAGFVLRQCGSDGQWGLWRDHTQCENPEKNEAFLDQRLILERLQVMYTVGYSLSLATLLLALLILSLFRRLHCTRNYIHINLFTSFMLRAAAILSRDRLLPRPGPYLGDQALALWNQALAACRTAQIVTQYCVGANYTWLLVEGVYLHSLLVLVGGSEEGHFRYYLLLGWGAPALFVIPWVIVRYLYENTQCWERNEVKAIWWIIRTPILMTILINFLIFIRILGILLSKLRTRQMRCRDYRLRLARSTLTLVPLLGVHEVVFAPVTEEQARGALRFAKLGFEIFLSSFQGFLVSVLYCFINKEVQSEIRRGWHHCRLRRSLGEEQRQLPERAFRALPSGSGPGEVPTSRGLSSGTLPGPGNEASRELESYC
Experiment: Functional hGIP-R Assay (cAMP formation, HTRF)
Type: cell-based
Conditions: for Emax: cAMP efficacy, percent of maximal response to GIP(1-42)OH, 37° C., 0.1% bovine casein, arithmetic mean ± SEM; for EC50: cAMP potency, HEK-293 cells expressing hGIP-R, incubated at 37° C. in the presence of 0.1% bovine casein, geometric mean, read-out: Human GIP-R EC50, nM (SEM, n)
In short: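 HEK-293 cells expressing hGIP-R were given a 20-point compound series in DMEM with 0.1% casein, 250 μM IBMX, 1% DMSO, 30 min at 37 °C. cAMP was read by HTRF against a standard curve, expressed as % of human GIP (1-42) OH maximum; EC50 and Emax came from four-parameter fits.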

| SMILES | Emax [%] | EC50 [nM] |
| --- | --- | --- |
| Cc1nc(-c2cnc3nc(C4CC4)cn3c2)ccc1[C@H]1C[C@@]12CCN([C@H](Cc1cnn(C(F)F)c1)C(=O)NC(C)(C)Cn1nc(C(F)(F)F)cc1-c1ccc(C(C)(C)O)nc1)C2=O [Example 159, (R)-2-((1R,3R)-1-(6-(2-Cyclopropylimidazo[1,2-a]pyrimidin-6-yl)-2-methylpyridin-3-yl)-4-oxo-5-azaspiro[2.4]heptan-5-yl)-3-(1-(difluoromethyl)-1H-pyrazol-4-yl)-N-(1-(5-(6-(2-hydroxypropan-2-yl)pyridin-3-yl)-3-(trifluoromethyl)-1H-pyrazol-1-yl)-2-methylpropan-2-yl)propanamide] | 95.3 ± 3.03 | 0.397 |
| Cn1cc2cc(-c3ccc([C@H]4C[C@@]45CCN([C@H](Cc4cnn(C(F)F)c4)C(=O)NC(C)(C)Cn4nc(C(F)(F)F)cc4-c4ccn(C(F)F)c(=O)c4)C5=O)c(F)c3)cnc2n1 [Example 134, (R)-3-(1-(Difluoromethyl)-1H-pyrazol-4-yl)-N-(1-(5-(1-(difluoromethyl)-2-oxo-1,2-dihydropyridin-4-yl)-3-(trifluoromethyl)-1H-pyrazol-1-yl)-2-methylpropan-2-yl)-2-((1S,3R)-1-(2-fluoro-4-(2-methyl-2H-pyrazolo[3,4-b]pyridin-5-yl)phenyl)-4-oxo-5-azaspiro[2.4]heptan-5-yl)propanamide] | 57.4 ± 0.103 | 7.63 |
| Cn1cc2cc(-c3ccc([C@H]4C[C@@]45CCN([C@H](Cc4cnn(C(F)F)c4)C(=O)NC(C)(C)Cn4nc(C(F)(F)F)cc4-c4cn(C)c(=O)c6ccnn46)C5=O)cc3)cnc2n1 [Example 133, (R)-3-(1-(Difluoromethyl)-1H-pyrazol-4-yl)-N-(2-methyl-1-(5-(5-methyl-4-oxo-4,5-dihydropyrazolo[1,5-a]pyrazin-7-yl)-3-(trifluoromethyl)-1H-pyrazol-1-yl)propan-2-yl)-2-((1R,3R)-1-(4-(2-methyl-2H-pyrazolo[3,4-b]pyridin-5-yl)phenyl)-4-oxo-5-azaspiro[2.4]heptan-5-yl)propanamide] | 78.4 ± 3.18 | 13.7 |
| Cn1cc2cc(-c3ccc([C@H]4C[C@@]45CCN([C@H](Cc4cnn(C(F)F)c4)C(=O)NC(C)(C)Cn4nc(C(F)(F)F)cc4-c4ccc(=O)n(CC(F)(F)F)c4)C5=O)cc3)cnc2n1 [Example 125, (R)-3-(1-(Difluoromethyl)-1H-pyrazol-4-yl)-N-(2-methyl-1-(5-(6-oxo-1-(2,2,2-trifluoroethyl)-1,6-dihydropyridin-3-yl)-3-(trifluoromethyl)-1H-pyrazol-1-yl)propan-2-yl)-2-((1R,3R)-1-(4-(2-methyl-2H-pyrazolo[3,4-b]pyridin-5-yl)phenyl)-4-oxo-5-azaspiro[2.4]heptan-5-yl)propanamide] | 68.5 ± 6.59 | 38.5 |
| Cn1cc(-c2cc(C(F)(F)F)nn2CC(C)(C)NC(=O)[C@@H](Cc2cnn(C(F)F)c2)N2CCC3(CC3c3ccc4cnn(C)c4c3)C2=O)cc(F)c1=O (single isomer, unassigned) [Example 184] | 15.2 ± 1.27 | 15.2 |
| COCc1cn2cc(-c3ccc([C@H]4C[C@@]45CCN([C@H](Cc4cnn(C(F)F)c4)C(=O)NC(C)(C)Cn4nc(C(F)(F)F)cc4-c4cncc(C)n4)C5=O)c(C)n3)cnc2n1 [Example 176, (R)-3-(1-(difluoromethyl)-1H-pyrazol-4-yl)-2-((1R,3R)-1-(6-(2-(methoxymethyl)imidazo[1,2-a]pyrimidin-6-yl)-2-methylpyridin-3-yl)-4-oxo-5-azaspiro[2.4]heptan-5-yl)-N-(2-methyl-1-(5-(6-methylpyrazin-2-yl)-3-(trifluoromethyl)-1H-pyrazol-1-yl)propan-2-yl)propanamide] | 123 | 14.4 |
| Cn1cc(C[C@H](C(=O)NC(C)(C)Cn2nc(C(F)(F)F)cc2-c2cn[nH]n2)N2CC[C@@]3(C[C@@H]3c3ccc(-c4cnc5nn(C)cc5c4)cc3)C2=O)cn1 [Example 95, (R)—N-(1-(5-(2H-1,2,3-Triazol-4-yl)-3-(trifluoromethyl)-1H-pyrazol-1-yl)-2-methylpropan-2-yl)-3-(1-methyl-1H-pyrazol-4-yl)-2-((1R,3R)-1-(4-(2-methyl-2H-pyrazolo[3,4-b]pyridin-5-yl)phenyl)-4-oxo-5-azaspiro[2.4]heptan-5-yl)propanamide] | 90 ± 2.84 | 48.1 |
| Cn1cc(-c2cc(C(F)(F)F)nn2CC(C)(C)NC(=O)[C@@H](Cc2cnn(C(F)F)c2)NC(=O)[C@H]2C[C@@H]2c2ccc3c(Cl)nn(C)c3c2)cc(F)c1=O [Example 183, (1S,2S)-2-(3-chloro-1-methyl-1H-indazol-6-yl)-N-((R)-3-(1-(difluoromethyl)-1H-pyrazol-4-yl)-1-((1-(5-(5-fluoro-1-methyl-6-oxo-1,6-dihydropyridin-3-yl)-3-(trifluoromethyl)-1H-pyrazol-1-yl)-2-methylpropan-2-yl)amino)-1-oxopropan-2-yl)cyclopropane-1-carboxamide] | 4.64 ± 0.608 | 44.9 |

Further lines, results first:

| Emax [%] | EC50 [nM] | SMILES |
| --- | --- | --- |
| 109 ± 0.179 | 49.1 | Cn1cc(C[C@@H](NC(=O)[C@H]2C[C@@H]2c2ccc(-c3cnc4nn(C)cc4c3)cc2)C(=O)NC(C)(C)Cn2nc(C(F)(F)F)cc2-c2cnn(CC3COC3)c2)cn1 [Example 55, (1S,2S)-N-((R)-1-((2-Methyl-1-(1′-(oxetan-3-ylmethyl)-5-(trifluoromethyl)-1′H,2H-[3,4′-bipyrazol]-2-yl)propan-2-yl)amino)-3-(1-methyl-1H-pyrazol-4-yl)-1-oxopropan-2-yl)-2-(4-(2-methyl-2H-pyrazolo[3,4-b]pyridin-5-yl)phenyl) cyclopropane-1-carboxamide] |
| 111 ± 11.6 | 44.4 | Cn1cc(C[C@@H](NC(=O)[C@H]2C[C@@H]2c2ccc(-c3cnc4nc(C(F)(F)F)cn4c3)cc2)C(=O)NC(C)(C)Cn2nc(C(F)(F)F)cc2-n2ccnn2)cn1 [Example 23, (1S,2S)-N-((R)-1-((1-(5-(1H-1,2,3-Triazol-1-yl)-3-(trifluoromethyl)-1H-pyrazol-1-yl)-2-methylpropan-2-yl)amino)-3-(1-methyl-1H-pyrazol-4-yl)-1-oxopropan-2-yl)-2-(4-(2-(trifluoromethyl)imidazo [1,2-a]pyrimidin-6-yl)phenyl) cyclopropane-1-carboxamide] |
| 86.9 ± 7.93 | 0.904 | CC(C)(Cn1nc(C(F)(F)F)cc1-c1cn[nH]n1)NC(=O)[C@@H](Cc1cnc2ncccn12)NC(=O)[C@H]1C[C@@H]1c1ccc(-c2cnc3nc(C(F)(F)F)cn3c2)cc1 [Example 68, (1S,2S)-N—((R)-1-((1-(5-(2H-1,2,3-Triazol-4-yl)-3-(trifluoromethyl)-1H-pyrazol-1-yl)-2-methylpropan-2-yl)amino)-3-(imidazo[1,2-a]pyrimidin-3-yl)-1-oxopropan-2-yl)-2-(4-(2-(trifluoromethyl)imidazo[1,2-a]pyrimidin-6-yl)phenyl)cyclopropane-1-carboxamide] |
| 77.4 ± 5.92 | 10.8 | Cn1cc2cc(-c3ccc([C@H]4C[C@@H]4C(=O)N[C@H](Cc4cnc5ncccn45)C(=O)NC(C)(C)Cn4nc(C(F)(F)F)cc4C4CC4)cc3)cnc2n1 [Example 37, (1S,2S)-N-((R)-1-((1-(5-Cyclopropyl-3-(trifluoromethyl)-1H-pyrazol-1-yl)-2-methylpropan-2-yl)amino)-3-(imidazo[1,2-a]pyrimidin-3-yl)-1-oxopropan-2-yl)-2-(4-(2-methyl-2H-pyrazolo[3,4-b]pyridin-5-yl)phenyl) cyclopropane-1-carboxamide] |
| 118 ± 0.533 | 99.3 | Cn1cc(C[C@@H](NC(=O)[C@H]2C[C@@H]2c2ccc(-c3cnc4nn(C)cc4c3)cc2)C(=O)NC(C)(C)Cn2nc(C(F)(F)F)cc2-c2cnn(C)n2)cn1 [Example 66, (1S,2S)-N—((R)-1-((2-Methyl-1-(5-(2-methyl-2H-1,2,3-triazol-4-yl)-3-(trifluoromethyl)-1H-pyrazol-1-yl)propan-2-yl)amino)-3-(1-methyl-1H-pyrazol-4-yl)-1-oxopropan-2-yl)-2-(4-(2-methyl-2H-pyrazolo[3,4-b]pyridin-5-yl)phenyl)cyclopropane-1-carboxamide] |
| 99.3 | 61.6 | Cn1cc(C[C@@H](NC(=O)[C@H]2C[C@@H]2c2ccc(-c3cnc4nccn4c3)cc2)C(=O)NC(C)(C)Cn2nc(C(F)(F)F)cc2-c2cn[nH]n2)cn1 [Example 27, (1S,2S)-N-((R)-1-((1-(5-(2H-1,2,3-Triazol-4-yl)-3-(trifluoromethyl)-1H-pyrazol-1-yl)-2-methylpropan-2-yl)amino)-3-(1-methyl-1H-pyrazol-4-yl)-1-oxopropan-2-yl)-2-(4-(imidazo[1,2-a]pyrimidin-6-yl)phenyl) cyclopropane-1-carboxamide] |
| 98.4 ± 3.96 | 53 | Cn1cc(C[C@@H](NC(=O)[C@H]2C[C@@H]2c2ccc(-c3cnc4nn(C)cc4c3)cc2)C(=O)NC(C)(C)Cn2nc(C(F)(F)F)cc2-c2ccn(C)c(=O)c2)cn1 [Example 52, (1S,2S)-N—((R)-1-((2-Methyl-1-(5-(1-methyl-2-oxo-1,2-dihydropyridin-4-yl)-3-(trifluoromethyl)-1H-pyrazol-1-yl)propan-2-yl)amino)-3-(1-methyl-1H-pyrazol-4-yl)-1-oxopropan-2-yl)-2-(4-(2-methyl-2H-pyrazolo[3,4-b]pyridin-5-yl)phenyl)cyclopropane-1-carboxamide] |

Source: patent US20260108546A1 (ELI LILLY AND COMPANY, priority 2024, published 2026)
